IC50 data for 17 molecules are collected here from patent US10023570B2 (Array BioPharma, Inc., priority 2015, dated 2018).

pIC50: −log10 of the molar value. Where a name gives a salt, the structure may show the parent alone. Read-outs that look alike come from different tables or passages of the source.

Experiment [1] deals with Kif5b-RET fusion protein in HEK-293 cells (Homo sapiens, UniProt P07949). As to the kind of experiment: cell-based. The method, then:
The cellular potency of a compound inhibiting RET kinase was determined in HEK-293 cells expressing a Kif5b-RET fusion protein. Briefly, HEK-293 cells expressing a Kif5b-RET fusion protein were plated at 50K cells/well in 96 well poly-D-Lysine coated plates the day prior to the assay. The cells were incubated for 1 hour with test compound in DMEM (Dulbecco's Modified Eagle Medium) at a final DMSO concentration of 0.5%. […] After 1 hour the media was removed, the cells were fixed with 3.8% formaldehyde for 20 min, washed with PBS, and permeabilized for 10 min with 100% methanol. […] All antibodies were diluted in LI-COR Block containing 0.05% Tween. The plates were washed with PBS-0.05% Tween20, 100 μL PBS was added to each well, and the plates were read on a LI-COR Aerius fluorescent plate reader. The phospho-RET signal was normalized to the GAPDH signal. […] The IC50 value is the point where the curve crosses 50 POC.

Experiment [2] addresses human KDR protein in HEK-293 cells (Homo sapiens (Human), UniProt P35968). Put plainly: KDR Cell Assay (phospho-KDR in HEK-293 cells expressing inducible KDR). The format is cell-based. Particulars: pKDR Cell HEK 10% FBS IC50, HEK-293 cells expressing inducible KDR, VEGF stimulated, 10% FBS. The method in brief:
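HEK-293 cells with inducible human KDR were treated with compound for 1 h in DMEM (0.25% DMSO final), then lysed. Phospho-KDR was quantified by Meso Scale immunoassay, expressed as percent of control, and IC50 taken where a 4-parameter logistic fit crossed 50 POC.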

Experiment [3] concerns the target N-terminal GST tagged recombinant human RET cytoplasmic domain (aa 658-end), wild type RET kinase (Homo sapiens (Human), UniProt P07949). As to the kind of experiment: RET Enzyme Assay (HTRF KinEASE-TK), wild type RET. It is filed as biochemical. A general note: Time-resolved FRET reads energy transfer from a long-lived donor to a nearby acceptor.
Where [4] appears, read: HEK-293 cells expressing Kif5b-RET, phospho-RET(Tyr1062), read-out: KIF5B-RET pTYR1062 Cell IC50.
[5] abbreviates: read-out: KIF5B-RET pTYR1062 Cell IC50.
[6] abbreviates: HEK-293 cells expressing Kif5b-RET, read-out: KIF5B-RET pTYR1062 Cell IC50.

Sequence of N-terminal GST tagged recombinant human RET cytoplasmic domain (aa 658-end), wild type RET kinase (P07949 658-1114): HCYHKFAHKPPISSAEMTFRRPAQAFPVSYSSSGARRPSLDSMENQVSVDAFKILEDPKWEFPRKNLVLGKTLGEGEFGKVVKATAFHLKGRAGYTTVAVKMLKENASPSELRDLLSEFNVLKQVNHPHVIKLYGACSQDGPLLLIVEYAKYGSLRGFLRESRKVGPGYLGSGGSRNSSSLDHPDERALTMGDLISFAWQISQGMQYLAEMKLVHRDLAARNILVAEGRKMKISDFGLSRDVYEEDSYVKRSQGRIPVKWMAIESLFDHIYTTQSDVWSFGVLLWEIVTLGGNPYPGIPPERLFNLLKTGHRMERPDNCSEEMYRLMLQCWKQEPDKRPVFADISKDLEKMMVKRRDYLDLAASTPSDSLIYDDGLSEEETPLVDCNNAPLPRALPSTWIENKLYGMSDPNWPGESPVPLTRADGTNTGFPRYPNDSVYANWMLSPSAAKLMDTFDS
Sequence of human KDR protein in HEK-293 cells (P35968 20-1356): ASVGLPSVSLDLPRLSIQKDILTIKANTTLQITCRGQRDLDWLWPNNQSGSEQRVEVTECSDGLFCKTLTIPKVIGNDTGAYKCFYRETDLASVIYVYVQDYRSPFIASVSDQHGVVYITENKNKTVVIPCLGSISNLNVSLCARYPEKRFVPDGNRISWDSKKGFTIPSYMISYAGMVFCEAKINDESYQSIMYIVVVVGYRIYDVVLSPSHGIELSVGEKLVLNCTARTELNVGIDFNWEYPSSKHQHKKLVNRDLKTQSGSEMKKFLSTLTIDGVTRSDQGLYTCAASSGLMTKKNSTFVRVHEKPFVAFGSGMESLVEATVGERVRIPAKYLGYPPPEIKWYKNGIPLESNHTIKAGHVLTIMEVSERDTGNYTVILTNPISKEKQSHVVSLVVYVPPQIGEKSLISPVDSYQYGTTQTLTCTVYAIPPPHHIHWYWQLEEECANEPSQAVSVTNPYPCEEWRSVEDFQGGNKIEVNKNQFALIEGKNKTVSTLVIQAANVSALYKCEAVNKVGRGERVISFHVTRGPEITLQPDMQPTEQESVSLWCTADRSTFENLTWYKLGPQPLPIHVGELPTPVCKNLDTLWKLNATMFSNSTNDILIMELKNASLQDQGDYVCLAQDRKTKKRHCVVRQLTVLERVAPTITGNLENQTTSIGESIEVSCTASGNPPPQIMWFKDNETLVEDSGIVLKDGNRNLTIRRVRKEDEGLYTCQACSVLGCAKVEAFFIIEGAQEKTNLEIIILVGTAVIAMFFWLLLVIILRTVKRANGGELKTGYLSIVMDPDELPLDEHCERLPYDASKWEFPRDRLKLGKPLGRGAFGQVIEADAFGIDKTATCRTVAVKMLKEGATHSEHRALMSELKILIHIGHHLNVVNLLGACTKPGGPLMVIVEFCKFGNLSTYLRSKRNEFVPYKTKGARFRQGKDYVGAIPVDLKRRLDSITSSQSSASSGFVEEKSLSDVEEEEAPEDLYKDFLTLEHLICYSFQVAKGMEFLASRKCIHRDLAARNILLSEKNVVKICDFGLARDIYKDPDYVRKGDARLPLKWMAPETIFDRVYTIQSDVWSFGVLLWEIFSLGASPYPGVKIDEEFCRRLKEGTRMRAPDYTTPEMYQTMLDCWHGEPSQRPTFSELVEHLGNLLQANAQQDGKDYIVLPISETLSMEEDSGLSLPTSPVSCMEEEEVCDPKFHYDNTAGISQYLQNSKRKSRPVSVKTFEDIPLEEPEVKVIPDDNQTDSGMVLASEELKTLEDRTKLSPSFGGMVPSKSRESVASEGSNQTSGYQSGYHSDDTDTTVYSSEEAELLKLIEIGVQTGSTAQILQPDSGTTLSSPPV
Sequence of Kif5b-RET fusion protein in HEK-293 cells (P07949 29-1114 limits assumed): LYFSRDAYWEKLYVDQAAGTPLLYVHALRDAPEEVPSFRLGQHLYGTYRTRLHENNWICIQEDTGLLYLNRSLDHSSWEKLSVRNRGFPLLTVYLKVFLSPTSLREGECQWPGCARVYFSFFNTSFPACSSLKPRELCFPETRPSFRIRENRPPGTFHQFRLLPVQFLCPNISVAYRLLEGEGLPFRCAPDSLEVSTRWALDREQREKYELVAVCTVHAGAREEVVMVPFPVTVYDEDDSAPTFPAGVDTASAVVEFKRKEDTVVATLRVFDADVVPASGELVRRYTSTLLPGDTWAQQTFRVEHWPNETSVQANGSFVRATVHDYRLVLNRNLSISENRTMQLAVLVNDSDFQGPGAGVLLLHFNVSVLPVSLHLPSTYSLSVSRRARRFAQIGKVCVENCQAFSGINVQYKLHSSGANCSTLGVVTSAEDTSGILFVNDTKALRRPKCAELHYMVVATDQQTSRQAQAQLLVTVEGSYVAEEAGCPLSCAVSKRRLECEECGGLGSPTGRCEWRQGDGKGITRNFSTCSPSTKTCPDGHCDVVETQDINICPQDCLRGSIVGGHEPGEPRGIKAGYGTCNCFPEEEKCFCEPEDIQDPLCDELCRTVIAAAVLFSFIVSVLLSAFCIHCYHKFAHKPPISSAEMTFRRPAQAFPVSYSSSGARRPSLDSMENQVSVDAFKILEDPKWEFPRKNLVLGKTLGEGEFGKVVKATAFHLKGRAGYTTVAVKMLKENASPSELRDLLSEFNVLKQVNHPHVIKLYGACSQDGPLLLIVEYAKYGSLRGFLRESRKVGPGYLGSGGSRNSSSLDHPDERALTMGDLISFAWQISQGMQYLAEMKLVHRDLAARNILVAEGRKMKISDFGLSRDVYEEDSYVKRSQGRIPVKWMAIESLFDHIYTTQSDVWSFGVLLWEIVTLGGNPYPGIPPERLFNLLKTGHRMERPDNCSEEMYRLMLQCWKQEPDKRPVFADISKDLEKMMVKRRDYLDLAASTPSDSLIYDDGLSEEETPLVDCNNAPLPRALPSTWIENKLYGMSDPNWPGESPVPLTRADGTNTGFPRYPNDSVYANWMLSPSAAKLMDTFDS

For `C[C@H](O)[C@@H](C)N1CCN(c2ccc(-c3cc(-c4cnn(C)c4)cn4ncc(C#N)c34)cn2)CC1` (racemic) [Example 165, rac-4-(6-(4-((2R*,3S*)-3-hydroxybutan-2-yl)piperazin-1-yl)pyridin-3-yl)-6-(1-methyl-1H-pyrazol-4-yl)pyrazolo[1,5-a]pyridine-3-cartonitrile], the negative logarithm of the IC50 (pIC50) in experiment [1] is 7.54; in experiment [2], 5.69; in experiment [3] (wild type RET, 1 mM ATP), 7.61.

Regarding `Cn1cc(-c2cc(-c3ccc(N4CCNCC4)nc3)c3c(C#N)cnn3c2)cn1` [Example 2, 6-(1-methyl-1H-pyrazol-4-yl)-4-(6-(piperazin-1-yl)pyridin-3-yl)pyrazolo[1,5-a]pyridine-3-carbonitrile dihydrochloride], the figures for the pIC50 in experiment [1] (setting [4]), in experiment [2] and in experiment [3] were 6.96, 5.97 and 7.71, respectively.

With `Cn1cc(-c2cc(-c3ccc(N4CCN(C(=O)CN(C(=O)OC(C)(C)C)C(C)(C)C)CC4)nc3)c3c(C#N)cnn3c2)cn1` [Example 18, tert-butyl tert-butyl(2-(4-(5-(3-cyano-6-(1-methyl-1H-pyrazol-4-yl)pyrazolo[1,5-a]pyridin-4-yl)pyridin-2-yl)piperazin-1-yl)-2-oxoethyl)carbamate], the pIC50 was 7.70 in experiment [1] (setting [4]); 6.64 in experiment [2]; 7.51 in experiment [3] (wild type RET, 1 mM ATP).

Regarding `Cn1cc(-c2cc(-c3ccc(N4CCN(C(=O)CNC(C)(C)C)CC4)nc3)c3c(C#N)cnn3c2)cn1` [Example 22, 4-(6-(4-(2-(tert-butylamino)acetyl)piperazin-1-yl)pyridin-3-yl)-6-(1-methyl-1H-pyrazol-4-yl)pyrazolo[1,5-a]pyridine-3-carbonitrile dihydrochloride], the negative logarithm of the IC50 (pIC50) was 7.65 in experiment [1] (setting [5]); 6.20 in experiment [2]; 7.83 in experiment [3] (wild type RET, 1 mM ATP).

For `C[C@H](O)C(=O)N1CCN(c2ccc(-c3cc(-c4cnn(C)c4)cn4ncc(C#N)c34)cn2)CC1` [Example 30, (S)-4-(6-(4-(2-hydroxypropanoyl)piperazin-1-yl)pyridin-3-yl)-6-(1-methyl-1H-pyrazol-4-yl)pyrazolo[1,5-a]pyridine-3-carbonitrile], the pIC50 is 6.91 in experiment [1] (setting [4]); 6.04 in experiment [2]; 7.66 in experiment [3] (wild type RET, 1 mM ATP).

As to `Cn1cc(-c2cc(-c3ccc(N4CCN(C(=O)C(C)(C)O)CC4)nc3)c3c(C#N)cnn3c2)cn1` [Example 31, 4-(6-(4-(2-hydroxy-2-methylpropanoyl)piperazin-1-yl)pyridin-3-yl)-6-(1-methyl-1H-pyrazol-4-yl)pyrazolo[1,5-a]pyridine-3-carbonitrile], the pIC50 in experiment [1] (setting [4]) was 7.12; in experiment [2] it was 5.59; in experiment [3] (wild type RET, 1 mM ATP), 7.44.

As to `C[C@@H](O)C(=O)N1CCN(c2ccc(-c3cc(-c4cnn(C)c4)cn4ncc(C#N)c34)cn2)CC1` [Example 32, (R)-4-(6-(4-(2-hydroxypropanoyl)piperazin-1-yl)pyridin-3-yl)-6-(1-methyl-1H-pyrazol-4-yl)pyrazolo[1,5-a]pyridine-3-carbonitrile], the pIC50 was 6.97 in experiment [1] (setting [4]); 6.13 in experiment [2]; 7.62 in experiment [3] (wild type RET, 1 mM ATP).

For the molecule `Cn1cc(-c2cc(-c3ccc(N4CCN(C(=O)C(C)(C)C)CC4)nc3)c3c(C#N)cnn3c2)cn1` [Example 34, 6-(1-methyl-1H-pyrazol-4-yl)-4-(6-(4-pivaloylpiperazin-1-yl)pyridin-3-yl)pyrazolo[1,5-a]pyridine-3-carbonitrile 2,2,2-trifluoroacetate], the pIC50 in experiment [1] (setting [5]) was 7.21; in experiment [2], 5.52; in experiment [3] (wild type RET, 1 mM ATP), 7.46.

Regarding `COCC(=O)N1CCN(c2ccc(-c3cc(-c4cnn(C)c4)cn4ncc(C#N)c34)cn2)CC1` [Example 40, 4-(6-(4-(2-methoxyacetyl)piperazin-1-yl)pyridin-3-yl)-6-(1-methyl-1H-pyrazol-4-yl)pyrazolo[1,5-a]pyridine-3-carbonitrile 2,2,2-trifluoroacetate], the pIC50 in experiment [1] (setting [5]) is 7.95; in experiment [2], 6.65; in experiment [3] (wild type RET, 1 mM ATP), 7.86.

With `CC(C)C[C@@H](O)C(=O)N1CCN(c2ccc(-c3cc(-c4cnn(C)c4)cn4ncc(C#N)c34)cn2)CC1` [Example 53, (R)-4-(6-(4-(2-hydroxy-4-methylpentanoyl)piperazin-1-yl)pyridin-3-yl)-6-(1-methyl-1H-pyrazol-4-yl)pyrazolo[1,5-a]pyridine-3-carbonitrile], the negative logarithm of the IC50 (pIC50) is 8.00 in experiment [1] (setting [4]); 6.52 in experiment [2]; 8.36 in experiment [3] (wild type RET, 1 mM ATP).

For the molecule `COc1ccc(CN2CCN(c3ccc(-c4cc(-c5cnn(CCOC(C)C)c5)cn5ncc(C#N)c45)cn3)CC2)cn1` [Example 704, 6-(1-(2-isopropoxyethyl)-1H-pyrazol-4-yl)-4-(6-(4-((6-methoxypyridin-3-yl)methyl)piperazin-1-yl)pyridin-3-yl)pyrazolo[1,5-a]pyridine-3-carbonitrile], the pIC50 was 8.08 in experiment [1] and 7.52 in experiment [3] (wild type RET, 1 mM ATP).

As to `COc1ccc(CN2CCN(c3ccc(-c4cc(-c5cnn(CCC(=O)N(C)C)c5)cn5ncc(C#N)c45)cn3)CC2)cn1` [Example 706, 3-(4-(3-cyano-4-(6-(4-((6-methoxypyridin-3-yl)methyl)piperazin-1-yl)pyridin-3-yl)pyrazolo[1,5-a]pyridin-6-yl)-1H-pyrazol-1-yl)-N,N-dimethylpropanamide], the negative-log IC50 (pIC50) was 8.19 in experiment [1] (setting [6]) and 7.74 in experiment [3] (wild type RET, 1 mM ATP).

Take `COc1ccc(CN2CCN(c3ccc(-c4cc(-c5cnn(CC(C)OC)c5)cn5ncc(C#N)c45)cn3)CC2)cn1` (centres unmarked) [Example 709, 6-(1-(2-methoxypropyl)-1H-pyrazol-4-yl)-4-(6-(4-((6-methoxypyridin-3-yl)methyl)piperazin-1-yl)pyridin-3-yl)pyrazolo[1,5-a]pyridine-3-carbonitrile]: the pIC50 in experiment [1] (setting [6]) is 8.03; in experiment [3] (wild type RET, 1 mM ATP), 7.58.

As for `COc1ccc(CN2CCN(c3ccc(-c4cc(-c5cnn(CC(=O)N(C)C)c5)cn5ncc(C#N)c45)cn3)CC2)cn1` [Example 710, 2-(4-(3-cyano-4-(6-(4-((6-methoxypyridin-3-yl)methyl)piperazin-l-yl)pyridin-3-yl)pyrazolo[1,5-a]pyridin-6-yl)-1H-pyrazol-1-yl)-N,N-dimethylacetamide], the pIC50 in experiment [1] (setting [6]) is 7.90; in experiment [3] (wild type RET, 1 mM ATP), 7.70.

With `COc1ccc(CN2CCN(c3ncc(-c4cc(-c5cnn(C)c5)cn5ncc(C#N)c45)cc3F)CC2)cn1` [Example 736, 4-(5-fluoro-6-(4-((6-methoxypyridin-3-yl)methyl)piperazin-1-yl)pyridin-3-yl)-6-(1-methyl-1H-pyrazol-4-yl)pyrazolo[1,5-a]pyridine-3-carbonitrile], the pIC50 was 7.17 in experiment [1] and 7.45 in experiment [3] (wild type RET, 1 mM ATP).

Turning to `COc1ccc(CN2CCN(c3ccc(-c4cc(-c5cnn(C)c5)cn5ncc(Cl)c45)cn3)CC2)cn1` [Example 742, 3-chloro-4-(6-(4-((6-methoxypyridin-3-yl)methyl)piperazin-1-yl)pyridin-3-yl)-6-(1-methyl-1H-pyrazol-4-yl)pyrazolo[1,5-a]pyridine], the negative logarithm of the IC50 (pIC50) in experiment [1] was 7.41; in experiment [3] (wild type RET, 1 mM ATP) it was 7.43.

For `COc1ccc(CN2CCN(c3ccc(-c4cc(-c5cnn(C)c5)cn5ncc(C)c45)cn3)CC2)cn1` [Example 744, 4-(6-(4-((6-methoxypyridin-3-yl)methyl)piperazin-1-yl)pyridin-3-yl)-3-methyl-6-(1-methyl-1H-pyrazol-4-yl)pyrazolo[1,5-a]pyridine], the pIC50 is 7.18 in experiment [1] and 7.34 in experiment [3] (wild type RET, 1 mM ATP).

A word on the pIC50: it is the IC50 on a negative log10 scale, so that one unit is a factor of ten.
